Calls of active or inactive are those of the source.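 How the source made its calls: active means compounds giving half or more protection of infected cells from virus-caused growth loss, again on retest; inactive means the rest.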 Where a SMILES comes first, the peptide text is derived from it. [ ]: non-standard residue; d: D form. The star is where a group is joined. ξ: configuration not given here. ξF = NC(Cc1ccccc1)C(=O)O; Cbz = O=C(OCc1ccccc1)*; Aib = CC(C)(N)C(=O)O; NHNH2 = NN*
Tested on: CEM cells HIV-1 protection, formazan growth assay
Experiment: NCI AIDS Antiviral Assay
Details: for IC50: measured here: growth of uninfected CEM cells
Summary of the method: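 Human CEM cells, uninfected and HIV-1-infected, received five drug concentrations, and growth was read by soluble formazan assay. Compounds giving at least 50% protection were retested; reproducible 100% protection defined confirmed active.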

SMILES | EC50 [µM] | IC50 [µM] | outcome
N#CCCC(C#N)(C#N)CCC#N | > 759 | > 759 | –
CCOC(=O)C(NC(=O)c1cccc(Cl)c1)(Nc1ccc(S(=O)(=O)Nc2cc(C)on2)cc1)C(F)(F)F (configuration not stated) | > 200 | 155 | –
O=C(NOC(=O)c1ccc([N+](=O)[O-])cc1)c1ccc(Cl)cc1 | > 112 | > 112 | –
CC1CC(C)(C)N=C(C(C)CC(C)(C)C)O1 (configuration not stated) | > 200 | 60.3 | –
COC(=O)C(=NNc1ccccc1[N+](=O)[O-])C(=O)OC | – | – | inactive
Nc1ncnc2c1ncn2[C@@H]1C[C@@H]1CO | > 200 | > 200 | –
Nc1cccc(C(=O)/C=C/c2ccccc2O)c1 | > 282 | 55 | –
CCOP(=O)(OCC)C(Cc1ccc(OC)c(OC)c1)N=C(c1ccccc1)c1ccccc1 (configuration not stated) | > 200 | 29.5 | –
O=C1CCC(c2ccccc2)(C2CCN(Cc3ccc(F)cc3)CC2)C(=O)N1 (configuration not stated) | > 200 | 123 | –
O=[N+]([O-])Cc1cnc2nncn2n1 | – | – | inactive
C=C(CCOC)CCC1CCCCC(=C)[C@H]1OC(C)=O (some centres not stated) | > 200 | 107 | –
N#Cc1ccccc1OCCOc1ccccc1C#N | > 200 | > 200 | –
CC1=C(C(=O)N[C@@H](CC(C)C)C(=O)O)N2C(=O)[C@@H](NC(=O)C(N)c3ccccc3)[C@H]2SC1 (some centres not stated) | 117 | > 200 | –
Cc1cc(C)c2c(c1N)C(=O)CCO2 | – | – | inactive
CCCCc1ccc(Nc2nc(=S)c3[nH]cnc3[nH]2)cc1 | > 200 | 44.7 | –
CC(=O)O[C@H]1CC[C@]2(C)C3CC[C@]4(C)C([C@H](C)CCCC(C)C)CCC4[C@]3(/C=N/O)n3c(=O)n(-c4ccccc4)c(=O)n3[C@]2(/C=N\O)C1 (some centres not stated) | > 200 | 11 | –
O=C1c2ccccc2C2(O)Nc3c(ccc4ccccc34)C12O (configuration not stated) | > 832 | 45.7 | –
O=C1C(=O)N(c2cc(Cl)ccc2Cl)C(=O)C(=O)C1c1nc2ccccc2o1 | > 24.5 | > 24.5 | –
CC(=O)N1N=C(c2ccc3ccccc3c2O)CC1c1ccc(N(C)C)cc1 (configuration not stated) | > 50.1 | > 50.1 | –
COC(=O)C(C)[P+](c1ccccc1)(c1ccccc1)c1ccccc1 (configuration not stated) | > 200 | 5.75 | –
COC(=O)Nc1nc2ccccc2c(=O)[nH]1 | > 200 | > 200 | –
N.N.N.N.N.O=C([O-])CCl.[Co+3].[O-][Cl+3]([O-])([O-])[O-] | – | – | inactive

SMILES | EC50 [µM] | IC50 [µM] | outcome
CCCCOC(=S)SSC(=S)OCCCC | > 56.2 | 11.5 | –
Cc1c(Cl)c(=O)oc2cc(OCC(=O)c3ccccc3)ccc12 | > 100 | > 100 | –
CCOC(=O)NN(C(=O)OCC)C(C(=O)c1ccccc1)N(NC(=O)OCC)C(=O)OCC | > 200 | > 200 | –
CCOP(C)(=O)C(Nc1ccc(F)cc1)c1ccc(F)cc1 (configuration not stated) | > 200 | 166 | –
BrCc1ccccc1C[P+](c1ccccc1)(c1ccccc1)c1ccccc1 | > 200 | 2.45 | –
Cc1cccc[c]1[Sb](=[O])([OH])[OH] | – | – | active
O=C(Nc1ccc(Cl)cc1)OCC12COCN1COC2 | 204 | 257 | –
CC1(C)OCC(C(O)C2OC(C)(C)OC2C=O)O1 (configuration not stated) | > 200 | > 200 | –
CN1CCN(C(=S)N(C)C(=O)c2ccco2)CC1 | > 933 | > 933 | –
CCOCCOCCOCOCCOCCOCC | > 200 | > 200 | –
CCOC(=O)/C(C#N)=C\c1ccc(N(CCC(=O)O)CCC(=O)O)c(I)c1 | > 501 | > 501 | –
CC(=O)Nc1cc(OCC(=O)O)ccc1S(=O)(=O)c1ccc(OCC(=O)O)cc1NC(C)=O | > 200 | > 200 | –
C[C@]12CC[C@@H]3c4ccc(OS(N)(=O)=O)cc4CC[C@H]3[C@@H]1CCC2=O | – | – | inactive
Cc1cc(=O)[nH]c(-n2[nH]c(C)c(CCO)c2=O)n1 | > 200 | > 200 | –
Cc1ccc(C(CC(=O)C(C)(C)CN2CCCCC2)SCCS(=O)(=O)O)cc1 (configuration not stated) | > 200 | 3.63 | –
Cc1cc(C)n(-c2c(O)ccc(O)c2-n2nc(C)cc2C)n1 | > 229 | 120 | –
Cc1cc(=O)[nH]c(NN2C(Cl)C(=O)C2c2ccco2)n1 (configuration not stated) | > 17.8 | > 17.8 | –
NC(=O)CN1CCN(CCCN2c3ccccc3Sc3ccc(Cl)cc32)CC1 | > 200 | 30.9 | –
CC1(C)CNCC2(C)OCCCOC3(C)CNCC(C)(C)NC(=O)C(C)(CNCC(C)(C)NC3=O)OCCCOC(C)(CNCC(C)(C)NC2=O)C(=O)N1 | > 200 | > 200 | –
CCn1c(=O)nc2n(-c3ccc(SC)cc3)c3ccccc3nc-2c1=O | – | – | inactive
COc1ccccc1C1(C)SCc2nc3ccccc3n21 (configuration not stated) | > 87.1 | 79.4 | –
Nc1nc(Cl)c(N)c(NCC2(CO)CC(Cc3ccccc3)C2)n1 (configuration not stated) | > 200 | 19.5 | –

SMILES | EC50 [µM] | IC50 [µM] | outcome
Cc1ccc(S(=O)(=O)N(CCN2C(=O)c3ccccc3C2=O)c2cc3c4c(c2)Oc2cc(N(CCN5C(=O)c6ccccc6C5=O)S(=O)(=O)c5ccc(C)cc5)cc5c2C4(C)c2c(cc(N(CCN4C(=O)c6ccccc6C4=O)S(=O)(=O)c4ccc(C)cc4)cc2O5)O3)cc1 | > 100 | 64.6 | –
CP(=O)(O)C(N)c1ccccc1 (configuration not stated) | > 200 | > 200 | –
Nc1nccc2c([N+](=O)[O-])cccc12 | – | – | inactive
CCCCCCCCCCCCCCCCCCOCC(CCP(=O)(CP(=O)(O)O)Oc1ccccc1)OCCCCCCCCCCCCCCCCCC (configuration not stated) | – | – | inactive
CN(C)c1ccc2nc3c(C(=O)O)cc(=O)c(O)c-3oc2c1 | > 100 | 13.8 | –
C=CCc1cc(C=C(C#N)C#N)cc(OC)c1O | > 200 | 97.7 | –
CC(C)CN1CC(=O)N2CCCN2C(=O)C1 | > 407 | > 407 | –
COC(=O)C1=CCS(=O)(=O)C1 | > 1410 | 178 | –
NC(=O)C(c1ccccc1)N1CCCC1 (configuration not stated) | > 200 | > 200 | –
O=NC1C(=O)NC(=O)NC1=O | > 200 | > 200 | –
O=c1[nH]c2cc([N+](=O)[O-])ccc2nc1/C(=N/Nc1ccccc1)C(O)c1ccc(C(O)/C(=N\Nc2ccccc2)c2cnc3cc([N+](=O)[O-])ccc3n2)cc1 (configuration not stated) | > 49 | 17 | –
Cc1cn(C2CC(O)C(COC(=O)CCCCCCCCCCN=[N+]=[N-])O2)c(=O)[nH]c1=O (configuration not stated) | > 123 | 24 | –
CN(C)c1ccc(/C=C(\NC(=O)c2ccccc2)c2nc3ccccc3c(=O)o2)cc1 | > 100 | > 100 | –
COC(=O)/C=C/c1ccc2c(c1)CCC2 | > 200 | 6.92 | –
Cc1cc2c(c(S(=O)(=O)c3ccc(Cl)cc3[N+](=O)[O-])c1)NCCC2 | > 75.9 | 27.5 | –
Nc1cc([N+](=O)[O-])ccc1N1C(=O)CCCC1=O | > 200 | > 200 | –
COC1(OC)CC2C(=O)N(Cc3ccccc3)C1CC2S(=O)(=O)c1ccccc1 (configuration not stated) | – | – | inactive
N#CC(C#N)=Cc1cccc(Oc2ccccc2)c1 | > 29.5 | > 29.5 | –
CC(C)=CCOc1cc(O)c2c(c1)C(=O)c1cc(C)cc(O)c1C2=O | > 50.1 | > 50.1 | –
COc1ccc(S(=O)(=O)NC(C)C(=O)O)cc1 (configuration not stated) | – | – | inactive
COc1ccc(C2=Nn3c(nc4sc5c(c4c3=O)CCCC5)SC2)cc1 | > 200 | > 200 | –
C=CCC(O)C1=CC(=O)c2c(O)ccc(O)c2C1=O (configuration not stated) | – | – | inactive

SMILES | EC50 [µM] | IC50 [µM] | outcome
[Cu+2].[Cu+2].[NH-]c1c(N=Nc2ccc(/C=C/c3ccc(N=Nc4cc(S(=O)(=O)[O-])c5cccc(S(=O)(=O)[O-])c5c4[NH-])cc3S(=O)(=O)[O-])c(S(=O)(=O)[O-])c2)cc(S(=O)(=O)[O-])c2cccc(S(=O)(=O)[O-])c12.[Na+] | 10.5 | 24 | –
Cc1ccc(Nc2cc(=O)[nH]c(=S)[nH]2)cc1 | > 200 | > 200 | –
O=c1oc2ccccc2c(O)c1Oc1ccccc1 | > 200 | 195 | –
Cc1nc2cccc([N+](=O)[O-])c2c(NCCCN(C)C)c1C | > 200 | 40.7 | –
Cc1ccc(C2OC(COCc3ccc(Cl)cc3)C(OCc3ccc(Cl)cc3)C2O)cc1 (configuration not stated) | – | – | inactive
N#Cc1c(-c2ccccc2)/c(=C\O)c(=O)n2c1nc1ccccc12 | > 200 | 32.4 | –
O=C(O)CSc1n[nH]c(-c2ccc(O)cc2)n1 | > 1000 | 977 | –
CCOC(=O)NC(=O)c1cn(CCN2CCN(c3ncnc4nc[nH]c34)CC2)c(=O)[nH]c1=O | – | – | inactive
CC1(C)NC(c2ccccc2)c2ccsc2-n2cccc21 (configuration not stated) | > 200 | > 100 | –
C=C1CCC2C(C)(CO)C(O)CCC2(C)C1CC(O)/C(=C/CO)C(=O)O (configuration not stated) | – | – | inactive
COc1ccc(N=C2C(=Nc3ccc(OC)cc3)N(S(=O)(=O)c3ccccc3)C(=S)N2c2ccccc2)cc1 | > 200 | > 200 | –
CCCCCCCCC1=C(OC)C(=O)c2cccnc2C1=O | – | – | inactive
CN(COC(=O)c1ccccc1)c1nc(N(C)COC(=O)c2ccccc2)nc(N(C)COC(=O)c2ccccc2)n1 | – | – | inactive
COc1cc2c3c(ccc2cc1O)-c1cc(OC)c(OC)cc1C[N+]3(C)C | > 4.47 | > 4.47 | –
NC(=O)CCNC(=O)c1ccc(NC(=O)c2ccccc2SC(=O)CCCC[n+]2ccccc2)cc1 | 18.6 | 45.7 | –
C1CC2N=C3OCCC3N=C2O1 (configuration not stated) | > 1510 | > 1510 | –
COc1cc([N+](=O)[O-])c(S(=O)(=O)O)cc1N | > 1000 | > 1000 | –
CCC(=O)N1C(=O)C(C)C23c4cccc([N+](=O)[O-])c4C(=O)N2CCCN13 (configuration not stated) | > 692 | > 692 | –
O=C(CCCC(=O)NNC(=O)Nc1ccc(N=Nc2ccccc2)cc1)NNC(=O)Nc1ccc(N=Nc2ccccc2)cc1 | > 200 | > 200 | –
CC(C)(NC(=O)OCc1ccccc1)C(=O)NC(Cc1ccccc1)C(=O)NN (configuration not stated) (Cbz-[Aib]-[ξF]-NHNH2) | > 200 | > 200 | –
O=c1ccc(=O)n(-c2ccc(Br)cc2)[nH]1 | > 26.9 | > 26.9 | –

From PubChem BioAssay AID179 (DTP/NCI, 2004)
